Results as given in patent US20260071117A1, “FUNABLE FLUORESCENT COMPOUNDS AND USES THEREOF” (Arizona Board of Regents on Behalf of the University of …, priority 2021, published 2026).

Assay: Absorbance and fluorescence measurements (excitation maximum, emission maximum, quantum yield vs coumarin 151)
Type: physicochemical
Design: key to Quantum Yield: fraction relative to coumarin 151 in ethanol standard
Conditions: for λex: absorbance/excitation maximum; for λem: emission maximum
From the text: All reagents and solvents were acquired from commercially available suppliers and used without further purification. Methanol(dried on molecular sieves-Acroseal) was obtained from Acros. […] 1H and 13C NMR spectra were obtained on a Bruker NMR spectrometer at 500/400 and 125/100 MHz respectively. The data is reported as follows: chemical shift in ppm (δ), multiplicity (s=singlet, d=doublet, dd=doublet of doublets, t=triplet, dt=doublet of triplets, td=triplet of doublets, q=quartet, p=pentet, m=multiplet). Coupling constants are reported in Hertz (Hz) and were automatically generated using known NMR analyzer software (MestReNova), these were then subsequently curated. High-resolution mass spectra were obtained using the positive ESI method for all the compounds, obtained in an Ion Cyclotron Resonance (ICR) spectrometer. Absorbance spectra were obtained using an Agilent 8453 UV-visible spectroscopy system. Fluorescence was measured on a Varian (Agilent) Cary Eclipse Fluorimeter. Quantum yield measurements were calculated and reported using coumarin 151 in ethanol as a standard.^1 Fluorescence scans were obtained using a 2.5 mm slit width unless otherwise noted.
The fluorescence was also measured in different solvents to examine the solvent effects.

[1] = coumarin 151 in ethanol as standard, 2.5 mm slit width, measurements run with methanol
[2] = 2.5 mm slit width, measurements run with methanol

Row | Structure (SMILES) | λex (measurements run with methanol) [nm] | Quantum Yield [1] | λem [2] [nm] | fluorescence (observation in words) | Quantum Yield (tetracyclic indolizines of Example I)
1 | Nc1c(-c2ccc(Oc3ccccc3)cc2)nc2ccccn12 [Compound 10m, 2-(4-phenoxyphenyl)imidazo[1,2-a]pyridin-3-amine] | 343 | 0.40 | 474 |  | 
2 | Nc1c(-c2cccc(Oc3ccccc3)c2)nc2ccccn12 [Compound 10n, 2-(3-phenoxyphenyl)imidazo[1,2-a]pyridin-3-amine] | 339 | 0.40 | 474 |  | 
3 | Cn1cccc1-c1nc2ccccn2c1N [Compound 10o, 2-(1-methyl-1H-pyrrol-2-yl)imidazo[1,2-a]pyridin-3-amine] | 349 | 0.20 | 478 |  | 
4 | Nc1c(-c2ccc(N(c3ccccc3)c3ccccc3)cc2)nc2ccccn12 [Compound 10p, 2-(4-(diphenylamino)phenyl)imidazo[1,2-a]pyridin-3-amine] | 353 | 0.34 | 471 |  | 
5 | CCN(CC)c1ccc(-c2nc3ccccn3c2N)cc1 [Compound 10q, 2-(4-(diethylamino)phenyl)imidazo[1,2-a]pyridin-3-amine] | 341 | 0.12 | 486 |  | 
6 | COc1cc(OC)cc(-c2nc3ncccn3c2N)c1 [Compound 10r, 2-(3,5-dimethoxyphenyl)imidazo[1,2-a]pyrimidin-3-amine] | 371 | 0.02 | 553 |  | 
7 | COc1cc(OC)cc(-c2nc3cnccn3c2N)c1 [Compound 10s, 2-(3,5-dimethoxyphenyl)imidazo[1,2-a]pyrazin-3-amine] | 382 | 0.35 | 477 |  | 
8 | COC(=O)c1ccn2c(N)c(-c3cc(OC)cc(OC)c3)nc2c1 [Compound 10v, methyl 3-amino-2-(3,5-dimethoxyphenyl)imidazo[1,2-a]pyridine-7-carboxylate] | 403 | 0.42 | 514 |  | 
9 | COC(=O)c1ccc2nc(-c3cc(OC)cc(OC)c3)c(N)n2c1 [Compound 10w, methyl 3-amino-2-(3,5-dimethoxyphenyl)imidazo[1,2-a]pyridine-6-carboxylate] | 343 | 0.02 | 473 |  | 
10 | COC(=O)c1cccc2nc(-c3cc(OC)cc(OC)c3)c(N)n12 [Compound 10x, methyl 3-amino-2-(3,5-dimethoxyphenyl)imidazo[1,2-a]pyridine-5-carboxylate] | 400 |  |  | quenched fluorescence altogether | 
11 | COc1cc(OC)cc(-c2nc3cc(Br)ccn3c2N)c1 [Compound 10y, 7-bromo-2-(3,5-dimethoxyphenyl)imidazo[1,2-a]pyridin-3-amine] | 349 | 0.01 | 487 |  | 
12 | Cc1nn2c(NC(C)(C)C)c(-c3ccccc3)nc2nc1/C=C/c1ccccc1 [Compound 42, (E)-N-(tert-butyl)-2-methyl-6-phenyl-3-styrylimidazo[1,2-b][1,2,4]triazin-7-amine] | 453 | 0.11 | 636 |  | 
13 | Cc1nn2c(NC(C)(C)C)c(-c3ccc4ccccc4c3)nc2nc1/C=C/c1ccc2ccccc2c1 [Compound 43, (E)-N-(tert-butyl)-2-methyl-6-(naphthalen-2-yl)-3-(2-(naphthalen-2-yl)vinyl)imidazo[1,2-b][1,2,4]triazin-7-amine] | 485 | 0.22 | 643 |  | 

Further lines, results first:

Row | λex (measurements run with methanol) [nm] | Quantum Yield [1] | λem [2] [nm] | fluorescence (observation in words) | Quantum Yield (tetracyclic indolizines of Example I) | Structure (SMILES)
14 |  |  |  | quenched fluorescence |  | COc1cccc(/C=N/c2c(-c3cccc(OC)c3)c(C#N)c3ccccn23)c1 [Compound 14a, (E)-3-((3-methoxybenzylidene)amino)-2-(3-methoxyphenyl)indolizine-1-carbonitrile]
15 | 366 | 0.34 | 418 |  |  | COc1cccc(-c2nc3c(nc4ccccn43)c3c(OC)c(OC)ccc23)c1OC [Compound 16b, 5-(2,3-dimethoxyphenyl)-1,2-dimethoxypyrido[2′,1′:2,3]imidazo[4,5-c]isoquinoline]
16 | 367 | 0.01 | 428 |  |  | COc1cc(-c2nc3c(nc4ccccn43)c3cc(OC)c(OC)c(OC)c23)cc(OC)c1OC [Compound 16c, 2,3,4-trimethoxy-5-(3,4,5-trimethoxyphenyl)pyrido[2′,1′:2,3]imidazo[4,5-c]isoquinoline]
17 | 364 | 0.01 | 415 |  |  | COc1cc(OC)cc(-c2nc3c(nc4ccccn43)c3cc(OC)cc(OC)c23)c1 [Compound 16d, 5-(3,5-dimethoxyphenyl)-2,4-dimethoxypyrido[2′,1′:2,3]imidazo[4,5-c]isoquinoline]
18 | 389 | 0.01 | 442 |  |  | c1ccc2cc(-c3nc4c(nc5ccccn54)c4ccc5ccccc5c34)ccc2c1 [Compound 16e, 7-(naphthalen-2-yl)benzo[h]pyrido[2′,1′:2,3]imidazo[4,5-c]isoquinoline]
19 | 295 | 0.07 | 488 |  |  | COc1cc(-c2nc3c(nc4cccnn43)c3cc(OC)c(OC)c(OC)c23)cc(OC)c1OC [Compound 16f, 2,3,4-trimethoxy-5-(3,4,5-trimethoxyphenyl)pyridazino[6′,1′:2,3]imidazo[4,5-c]isoquinoline]
20 | 296 | 0.07 | 510 |  |  | COc1cc(-c2nc3c(nc4ncccn43)c3cc(OC)c(OC)c(OC)c23)cc(OC)c1OC [Compound 16g, 2,3,4-trimethoxy-5-(3,4,5-trimethoxyphenyl)pyrimido[2′,1′:2,3]imidazo[4,5-c]isoquinoline]
21 | 265 | 0.002 | 553 |  |  | COc1cc(-c2nc3c(nc4cccc(Br)n43)c3cc(OC)c(OC)c(OC)c23)cc(OC)c1OC [Compound 16h, 8-bromo-2,3,4-trimethoxy-5-(3,4,5-trimethoxyphenyl)pyrido[2′,1′:2,3]imidazo[4,5-c]isoquinoline]
22 | 365 | 0.01 | 422 | not observable by the naked eye | 0.01 | COc1cc(OC)c2c(-c3ccccc3)nc3c(nc4ccccn43)c2c1 [Compound 18a, 2,4-dimethoxy-5-phenylpyrido[2′,1′:2,3]imidazo[4,5-c]isoquinoline]
23 | 370 |  |  | quenched the fluorescence fully |  | COc1cc(OC)c2c(-c3ccc([N+](=O)[O-])cc3)nc3c(nc4ccccn43)c2c1 [Compound 18b, 2,4-dimethoxy-5-(4-nitrophenyl)pyrido[2′,1′:2,3]imidazo[4,5-c]isoquinoline]
24 | 325 | 0.19 | 510 |  |  | COC(=O)c1ccn2c(c1)nc1c3cc(OC)cc(OC)c3c(/C=C/c3ccccc3)nc12 [Compound 18c, methyl (E)-2,4-dimethoxy-5-styrylpyrido[2′,1′:2,3]imidazo[4,5-c]isoquinoline-10-carboxylate]
